Counter-ions that a name gives are not always drawn.
Target: recombinant human SYK360-635 (Homo sapiens (Human), UniProt P43405)
Experiment: SYK kinase assay (33P ATP filtration, IC50 of SYK inhibition)
Format: biochemical
Conditions: truncated SYK aa 360-635 0.5 nM, ATP 20 μM, peptide 5 μM, 30° C. 15 min; read-out: ENZYME_FILTRATION_IC50
Description: Determination of IC50 of Spleen Tyrosine Kinase (SYK) Inhibition:
SYK kinase assay is a standard kinase assay adapted to a 96 well plate format. This assay is performed in 96-well format for IC50 determination with […] which represented 10 half log dilutions and a 40 μL reaction volume. The assay measures the incorporation of radiolabeled ^33P γATP into an N-terminally biotinylated peptide substrate, derived from naturally occurring phosphoacceptor consensus sequence (Biotin-11aa DY*E). Phosphorylated products were detected upon termination of reactions with EDTA and the addition of Streptavidin coated beads.
Assay plates: 96-well MultiScreen 0.65 um filter plates (Millipore Cat. No.: MADVNOB10)
final concentration: 50 mM HEPES pH7.5
BSA: Bovine Serum Albumin Fraction V, fatty acid free (Roche Diagnostics GmbH, Cat. No. 9100221) diluted to a final concentration of 0.1%
Assay Dilution Buffer (ADB): 50 mM HEPES, 0.1 mM EGTA, 0.1 mM Na Vanadate, 0.1 mM β-glycerophosphate, 10 mM MgCl2, 1 mM DTT, 0.1% BSA, pH 7.5
Bead wash buffer: 10 g/L PBS (Phosphate buffered saline) with 2M NaCl+1% phosphoric acid.
DMSO and the mixture was incubated for 10 min at RT.
The kinase reaction was initiated by the addition of 10 μL 4× substrate cocktail containing the DYE peptide substrate [0 or 5 μM], ATP [20 μM] and ^33PγATP [2 μCi/r×n]. After incubation at 30° C. for 15 min, the reaction was terminated by the transfer of 25 μL of the reaction sample to a 96 well 0.65 μm Millipore MADVNOB membrane/plate containing 200 μL 5 mM EDTA and 20% Streptavidine coated beads in PBS.
After the last wash membrane/plates were transferred to an adaptor plate, heat dried for 15 min at 60° C., and 50 μL scintillation cocktail was added to each well and 4 h later the amount of radioactivity was counted in a top counter.

Compound	IC50
FC(F)(F)c1cccc(Nc2cc(-c3ccccc3)nn3ccnc23)n1 [Example I-1, (6-Phenyl-imidazo[1,2-b]pyridazin-8-yl)-(6-trifluoromethyl-pyridin-2-yl)-amine]	> 10 µM
CCc1ccc(Nc2cc(-c3ccccc3)nn3ccnc23)nc1 [Example I-2, (5-Ethyl-pyridin-2-yl)-(6-phenyl-imidazo[1,2-b]pyridazin-8-yl)-amine]	0.186 µM
COC(=O)c1cccc(-c2cc(Nc3cccc(N4CCCC4C)n3)c3nccn3n2)c1 (stereo not shown) [Example I-8, 3-{8-[6-(2-Methyl-pyrrolidin-1-yl)-pyridin-2-ylamino]-imidazo[1,2-b]pyridazin-6-yl}-benzoic acid methyl ester]	0.478 µM
CC1CCCN1c1cccc(Nc2cc(-c3cccc(C(=O)Nc4ccc(C(=O)O)cc4)c3)nn3ccnc23)n1 (stereo not shown) [Example I-10, 4-(3-{8-[6-(2-Methyl-pyrrolidin-1-yl)-pyridin-2-ylamino]-imidazo[1,2-b]pyridazin-6-yl}-benzoylamino)-benzoic acid]	0.00165 µM
COC(=O)c1ccc(-c2cc(Nc3cccc(N4CCCC4C)n3)c3nccn3n2)cc1 (stereo not shown) [Example I-14, 4-{8-[6-(2-Methyl-pyrrolidin-1-yl)-pyridin-2-ylamino]-imidazo[1,2-b]pyridazin-6-yl}-benzoic acid methyl ester]	0.369 µM
CC1CCCN1c1cccc(Nc2cc(-c3ccc(C(=O)O)cc3)nn3ccnc23)n1 (stereo not shown) [Example I-15, 4-{8-[6-(2-Methyl-pyrrolidin-1-yl)-pyridin-2-ylamino]-imidazo[1,2-b]pyridazin-6-yl}-benzoic acid]	0.0842 µM
CC1CCCN1c1cccc(Nc2cc(-c3ccc(C(=O)NCCc4ccncc4)cc3)nn3ccnc23)n1 (stereo not shown) [Example I-16, 4-{8-[6-(2-Methyl-pyrrolidin-1-yl)-pyridin-2-ylamino]-imidazo[1,2-b]pyridazin-6-yl}-N-(2-pyridin-4-yl-ethyl)-benzamide]	0.0876 µM
CC1CCCN1c1cccc(Nc2cc(-c3ccc4c(c3)OCO4)nn3ccnc23)n1 (stereo not shown) [Example I-18, (6-Benzo[1,3]dioxol-5-yl-imidazo[1,2-b]pyridazin-8-yl)-[6-(2-methyl-pyrrolidin-1-yl)-pyridin-2-yl]-amine]	0.115 µM
CC1CCCN1c1cccc(Nc2cc(-c3ccc4cn[nH]c4c3)nn3ccnc23)n1 (stereo not shown) [Example I-19, [6-(1H-Indazol-6-yl)-imidazo[1,2-b]pyridazin-8-yl]-[6-(2-methyl-pyrrolidin-1-yl)-pyridin-2-yl]-amine]	0.075 µM
O=C(O)c1cccc(-c2cc(Nc3cccc(N4CCCC4CO)n3)c3nccn3n2)c1 (stereo not shown) [Example I-20, 3-{8-[6-(2-Hydroxymethyl-pyrrolidin-1-yl)-pyridin-2-ylamino]-imidazo[1,2-b]pyridazin-6-yl}-benzoic acid]	0.258 µM
O=C(O)c1cccc(-c2cc(Nc3cccc(N4CCCC4)n3)c3nccn3n2)c1 [Example I-22, 3-[8-(6-Pyrrolidin-1-yl-pyridin-2-ylamino)-imidazo[1,2-b]pyridazin-6-yl]-benzoic acid hydrochloride]	0.434 µM
O=C(O)c1cccc(-c2cc(Nc3cccc(N4CC5CC5C4)n3)c3nccn3n2)c1 (stereo not shown) [Example I-23, 3-{8-[6-(3-Aza-bicyclo[3.1.0]hex-3-yl)-pyridin-2-ylamino]-imidazo[1,2-b]pyridazin-6-yl}-benzoic acid]	0.442 µM
Cc1c(C(=O)O)cccc1-c1cc(Nc2cccc(N3CCC[C@@H]3C)n2)c2nccn2n1 [Example I-24, 2-Methyl-3-{8-[6-((S)-2-methyl-pyrrolidin-1-yl)-pyridin-2-ylamino]-imidazo[1,2-b]pyridazin-6-yl}-benzoic acid]	0.194 µM
CC1CCN(c2cccc(Nc3cc(-c4ccccc4)nn4ccnc34)n2)C1 (stereo not shown) [Example I-25, [6-(3-Methyl-pyrrolidin-1-yl)-pyridin-2-yl]-(6-phenyl-imidazo[1,2-b]pyridazin-8-yl)-amine]	0.0885 µM
COc1ccc(Nc2cc(-c3ccc(C(=O)O)cc3)nn3ccnc23)nc1OC [Example I-26, 4-[8-(5,6-Dimethoxy-pyridin-2-ylamino)-imidazo[1,2-b]pyridazin-6-yl]-benzoic acid]	0.265 µM
COc1ccc(Nc2cc(-c3ccc(C(=O)NCCc4cc[nH]c(=O)c4)cc3)nn3ccnc23)nc1OC [Example I-28, 4-[8-(5,6-Dimethoxy-pyridin-2-ylamino)-imidazo[1,2-b]pyridazin-6-yl]-N-[2-(2-oxo-1,2-dihydro-pyridin-4-yl)-ethyl]-benzamide]	0.187 µM

Compound	IC50
CCC1CCCN1c1cccc(Nc2cc(-c3ccccc3)nn3ccnc23)n1 (stereo not shown) [Example I-30, [6-(2-Ethyl-pyrrolidin-1-yl)-pyridin-2-yl]-(6-phenyl-imidazo[1,2-b]pyridazin-8-yl)-amine hydrochloride]	1.96 µM
OCC1CCCN1c1cccc(Nc2cc(-c3ccccc3)nn3ccnc23)n1 (stereo not shown) [Example I-31, {1-[6-(6-Phenyl-imidazo[1,2-b]pyridazin-8-ylamino)-pyridin-2-yl]-pyrrolidin-2-yl}-methanol hydrochloride]	0.27 µM
COc1ccc(Nc2cc(-c3ccc(C(=O)NCCc4ccn(C)c(=O)c4)cc3)nn3ccnc23)nc1OC [Example I-33, 4-[8-(5,6-Dimethoxy-pyridin-2-ylamino)-imidazo[1,2-b]pyridazin-6-yl]-N-[2-(1-methyl-2-oxo-1,2-dihydro-pyridin-4-yl)-ethyl]-benzamide]	0.079 µM
CC1(C)CCN(c2cccc(Nc3cc(-c4ccccc4)nn4ccnc34)n2)C1 [Example I-34, [6-(3,3-Dimethyl-pyrrolidin-1-yl)-pyridin-2-yl]-(6-phenyl-imidazo[1,2-b]pyridazin-8-yl)-amine]	1.05 µM
COCC1CCCN1c1cccc(Nc2cc(-c3ccccc3)nn3ccnc23)n1 (stereo not shown) [Example I-35, [6-(2-Methoxymethyl-pyrrolidin-1-yl)-pyridin-2-yl]-(6-phenyl-imidazo[1,2-b]pyridazin-8-yl)-amine hydrochloride]	0.834 µM
COCC1CCCN1c1cccc(Nc2cc(-c3cccc(C(=O)O)c3)nn3ccnc23)n1 (stereo not shown) [Example I-36, 3-{8-[6-(2-Methoxymethyl-pyrrolidin-1-yl)-pyridin-2-ylamino]-imidazo[1,2-b]pyridazin-6-yl}-benzoic acid]	0.345 µM
CC1CCCN1c1cccc(Nc2cc(-c3ccc4[nH]ncc4c3)nn3ccnc23)n1 (stereo not shown) [Example I-37, [6-(1H-Indazol-5-yl)-imidazo[1,2-b]pyridazin-8-yl]-[6-(2-methyl-pyrrolidin-1-yl)-pyridin-2-yl]-amine]	0.0981 µM
CC1CC(C)CN(c2cccc(Nc3cc(-c4cccc(C(=O)O)c4)nn4ccnc34)n2)C1 (stereo not shown) [Example I-38, 3-[8-(3,5-Dimethyl-3,4,5,6-tetrahydro-2H-[1,2′]bipyridinyl-6′-ylamino)-imidazo[1,2-b]pyridazin-6-yl]-benzoic acid]	0.904 µM
COc1cccc(-c2cc(Nc3cccc(N4CCCC4C)n3)c3nccn3n2)c1 (stereo not shown) [Example I-39, [6-(3-Methoxy-phenyl)-imidazo[1,2-b]pyridazin-8-yl]-[6-(2-methyl-pyrrolidin-1-yl)-pyridin-2-yl]-amine]	0.292 µM
CC1CCCN1c1cccc(Nc2cc(-c3cccc(C(=O)NCCO)c3)nn3ccnc23)n1 (stereo not shown) [Example I-40, N-(2-Hydroxy-ethyl)-3-{8-[6-(2-methyl-pyrrolidin-1-yl)-pyridin-2-ylamino]-imidazo[1,2-b]pyridazin-6-yl}-benzamide]	0.0425 µM
CC(CO)NC(=O)c1cccc(-c2cc(Nc3cccc(N4CCCC4C)n3)c3nccn3n2)c1 (stereo not shown) [Example I-41, N-(2-Hydroxy-1-methyl-ethyl)-3-{8-[6-(2-methyl-pyrrolidin-1-yl)-pyridin-2-ylamino]-imidazo[1,2-b]pyridazin-6-yl}-benzamide]	0.13 µM
CC1CCCN1c1cccc(Nc2cc(-c3cccc(C(=O)N4CCOCC4)c3)nn3ccnc23)n1 (stereo not shown) [Example I-42, (3-{8-[6-(2-Methyl-pyrrolidin-1-yl)-pyridin-2-ylamino]-imidazo[1,2-b]pyridazin-6-yl}-phenyl)-morpholin-4-yl-methanone]	0.219 µM
COc1ccc(Nc2cc(-c3ccccc3)nn3ccnc23)nc1OC [Example I-44, (5,6-Dimethoxy-pyridin-2-yl)-(6-phenyl-imidazo[1,2-b]pyridazin-8-yl)-amine]	0.0476 µM
CC1CCCN1c1cccc(Nc2cc(-c3cccc(C(=O)NCCN(C)C)c3)nn3ccnc23)n1 (stereo not shown) [Example I-46, N-(2-Dimethylamino-ethyl)-3-{8-[6-(2-methyl-pyrrolidin-1-yl)-pyridin-2-ylamino]-imidazo[1,2-b]pyridazin-6-yl}-benzamide]	0.141 µM
Cc1ccccc1-c1cc(Nc2cccc(N3CCCC3C)n2)c2nccn2n1 (stereo not shown) [Example I-47, [6-(2-Methyl-pyrrolidin-1-yl)-pyridin-2-yl]-(6-o-tolyl-imidazo[1,2-b]pyridazin-8-yl)-amine]	0.159 µM

— patent US9169259B2, “Imidazopyridazine compounds” (Hoffmann-La Roche Inc., priority 2011, dated 2015)
